This note sets out measurements from patent US20240261292A1, “COMBINATION THERAPIES” (Janssen Pharmaceutica NV, priority 2021, published 2024).

By IC50 is commonly meant the concentration needed to halve the response being measured.

Where a name gives a salt, the structure may show the parent alone.

Data set [1] has as its system MOLM-14 cells. The experiment in a line: Proliferation assay (spheroid), MOLM-14. The class given is cell-based. The settings on record: Homo sapiens, 8 days, read-out: spheroid assay_OneTime MOLM-14 IC50.
Data set [2] in a line: Metabolic stability in human liver microsomes. Type of data set: in vitro ADME. Particulars: pH 7.4, 0.5 mg/mL microsomes protein, read-out: Human LM Clint. As for the experimental part: (§1) 4) Metabolic Stability in Human/Mouse Liver Microsomes
(§2) The objective of this study is to measure in vitro metabolic stability of test compound(s) in human and mouse liver microsomes and provide quantitative information on the rate of metabolic turnover (i.e., determination of the apparent intrinsic clearance of test).
(§3) Test items were prepared at a stock concentration of 10 mM in DMSO. For determination of metabolic turnover, a final working solution was prepared by adding 2 μL of 10 mM DMSO stock solution for test compound or positive control compounds to 198 μL of acetonitrile (100 μM final concentration).
Incubations were performed as follows: First, liver microsomes were thawed on ice and a master solution containing liver microsomes in 100 mM PBS (phosphate-buffered saline) at pH 7.4 is prepared. Next, the liver microsomes solution was added to the incubation plates and 10 mM NADPH (Nicotinamide-adenine dinucleotide phosphate) was added (MW: 833.4 g/mol; Roche Diagnostics GmbH1, Germany. Dissolved in phosphate buffer (100 mmol/L, pH 7.4)). […]
(§4) All calculations were carried out using Microsoft Excel. The slope value, k, was determined by linear regression of the natural logarithm of the remaining percentage of the parent drug vs. incubation time curve.
(§5) The in vitro half-life (in vitro t1/2) was determined from the slope value: […]
(In general: Microsomes from liver hold many membrane-bound enzymes, among them those of drug oxidation.)

Data set [3] in a line: Metabolic stability in mouse liver microsomes. Particulars: pH 7.4, 0.5 mg/mL microsomes protein, read-out: Mouse LM Clint. The class given is in vitro ADME. Here is the method: as §1, §2, §3
Incubations were performed as follows: First, liver microsomes were thawed on ice and a master solution containing liver microsomes in 100 mM PBS (phosphate-buffered saline) at pH 7.4 is prepared. Next, the liver microsomes solution was added to the incubation plates and 10 mM NADPH (Nicotinamide-adenine dinucleotide phosphate) was added (MW: 833.4 g/mol; Roche Diagnostics GmbH1, Germany. Dissolved in phosphate buffer (100 mmol/L, pH 7.4)). The mixture was mixed for 10 seconds and pre-warmed in the incubation plate at 37° C. for 10 minutes. The metabolic reaction was initiated with the addition of 5 μL of the 100 μM working solution for test compound or positive control compounds to incubation plate (final test item concentration=1 μM). The reaction final mixture should contain 1 mM NADPH, 0.5 mg/mL microsomes protein and 1 μM test compound or positive control compound in 100 mM PBS at pH 7.4. The percentage of organic solvent in incubation mixture is 1% with DMSO 0.02%.
The reaction was quenched by transferring 50 μL of the incubated mixture at selected time points into the quenching plate containing 200 μL of cold methanol. […]
as §4, §5

Data set [4] addresses hERG (Homo sapiens (Human), UniProt Q12809). The experiment in a line: hERG current in hERG-transfected HEK293 cells (Protocol 2, SyncroPatch 384PE). Type of data set: cell-based. Particulars: Protocol 2, HEK293 cells. Here is the method:
The compound, vehicle control and positive control were tested on hERG-transfected HEK293 cells. A human embryonic kidney cell line (HEK293) with a stable transfection of hERG (Zhou Z et al. Biophysical Journal 1998. 74, 230-241; McDonald T. V. et al, Nature 1997. 388, 289-292) was used (University of Wisconsin, Madison, USA). The cells were kept in culture in MEM (Minimum Essential Medium, Gibco) which was supplemented with (amounts indicated added to 500 ml MEM): 5 ml L-Glutamine-Penicillin-Streptomycin (Sigma), 50 ml Fetal Bovine serum (Bio-Whittaker), 5 ml Non-essential Amino Acids 100× (Gibco), 5 mil sodium pyruvate 100 mM (Gibco) and 4 ml geneticin 50 mg/ml (Gibco) using T175 flasks.
Cells were harvested as described below using Accumax™ (Sigma) as the dissociating reagent. Cells were then resuspended in a mixture of 33% DMEM/F12 (Dulbecco's Modified Eagle Medium/Nutrient Mixture F-12—Sigma) media/67% extracellular physiological solution. […]
The whole cell patch clamp technique on transfected cells allows the study of ion-channels with no—or limited interference from other ion-channels. […] All cells were recorded in the whole cell mode of the patch clamp technique. […]
After the whole cell mode was achieved, test pulses were given for ˜10 minutes to quantify the hERG current in control conditions. […]

Sequence of hERG (Q12809 whole entry): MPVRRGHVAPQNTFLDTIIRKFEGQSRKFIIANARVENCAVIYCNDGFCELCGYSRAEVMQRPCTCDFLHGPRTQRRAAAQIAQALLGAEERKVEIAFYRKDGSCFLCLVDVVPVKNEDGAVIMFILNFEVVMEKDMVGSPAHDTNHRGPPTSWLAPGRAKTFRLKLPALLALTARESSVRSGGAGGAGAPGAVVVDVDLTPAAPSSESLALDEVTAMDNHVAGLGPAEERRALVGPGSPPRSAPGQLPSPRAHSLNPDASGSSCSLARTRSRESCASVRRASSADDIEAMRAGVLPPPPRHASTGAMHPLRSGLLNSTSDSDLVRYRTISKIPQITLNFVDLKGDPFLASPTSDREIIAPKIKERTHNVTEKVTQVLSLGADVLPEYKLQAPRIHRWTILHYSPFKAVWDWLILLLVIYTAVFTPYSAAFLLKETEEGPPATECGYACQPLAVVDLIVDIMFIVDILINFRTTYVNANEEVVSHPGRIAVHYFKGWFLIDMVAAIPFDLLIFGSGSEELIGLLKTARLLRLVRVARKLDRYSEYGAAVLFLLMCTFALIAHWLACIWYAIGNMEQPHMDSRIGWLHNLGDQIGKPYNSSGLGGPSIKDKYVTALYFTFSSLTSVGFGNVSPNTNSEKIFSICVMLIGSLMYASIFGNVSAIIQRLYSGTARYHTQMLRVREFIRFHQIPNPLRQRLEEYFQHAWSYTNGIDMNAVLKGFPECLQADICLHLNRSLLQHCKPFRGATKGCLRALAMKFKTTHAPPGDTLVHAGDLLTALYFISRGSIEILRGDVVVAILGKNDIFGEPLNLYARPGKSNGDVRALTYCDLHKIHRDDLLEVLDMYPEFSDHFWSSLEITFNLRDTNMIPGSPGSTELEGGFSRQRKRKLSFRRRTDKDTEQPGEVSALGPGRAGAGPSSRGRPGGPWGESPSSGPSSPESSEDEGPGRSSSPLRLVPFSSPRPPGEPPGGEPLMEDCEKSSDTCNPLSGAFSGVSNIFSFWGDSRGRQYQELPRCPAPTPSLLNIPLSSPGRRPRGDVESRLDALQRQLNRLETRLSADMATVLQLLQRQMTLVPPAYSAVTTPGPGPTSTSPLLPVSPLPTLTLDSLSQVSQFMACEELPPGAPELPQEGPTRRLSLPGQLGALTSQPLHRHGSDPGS

Consider `CCN(C(=O)c1cc(F)ccc1Oc1nncnc1N1CCC2(C1)CN([C@H](CCCNCCOC)C(C)C)C2)C(C)C` [Compound 11, (R)-N-ethyl-5-fluoro-N-isopropyl-2-((5-(2-(6-((2-methoxyethyl)amino)-2-methylhexan-3-yl)-2,6-diazaspiro[3.4]octan-6-yl)-1,2,4-triazin-6-yl)oxy)benzamide], for which the IC50 is 21 nM in data set [1] and more than 30200 nM in data set [4]. Besides, the values for the microsomal CLint at 1 μM in data set [2] and in data set [3] (liver microsomes) were 14 µL/min/mg and less than 7.5 µL/min/mg, respectively.
Regarding `CCN(C(=O)c1cc(F)ccc1Oc1nncnc1N1CCC2(C1)CN([C@H](CCCN(C)CCOC)C(C)C)C2)C(C)C` [Compound A3, (R)-N-ethyl-5-fluoro-N-isopropyl-2-((5-(2-(6-((2-methoxyethyl) (methyl)amino)-2-methylhexan-3-yl)-2,6-diazaspiro[3.4]octan-6-yl)-1,2,4-triazin-6-yl)oxy) benzamide oxalate], the microsomal CLint at 1 μM in data set [3] (mouse liver microsomes) is less than 7.5 µL/min/mg.
